Source: patent US20240415923A1, “RNA-Dependent RNA Polymerase Inhibitory Compounds, Uses in Managing Viral Infections, and Pharmaceutical Compositions” (priority 2023, published 2024)
Where a name gives a salt, the structure may show the parent alone. Starred links: 1 amine or outer side, 2 acyl side, 3 side chain; linkers in the order of their positions; H or OH if unused. Positions of bridges follow the written chain, without caps; N, C: chain ends. Non-standard residues stand in square brackets, D forms with d. Residues, ends and D or L forms follow the SMILES beside them. *: point of attachment. hTyr(3S-OH,4S-OH,3'-OSO3H) = N[C@H](C(=O)O)[C@H](O)[C@@H](O)c1ccc(O)c(OS(=O)(=O)O)c1; Orn(4R-OH,5R-OH) = O=C([C@H](C[C@@H](O)[C@@H](O)N[*:3])N[*:1])[*:2]; Pro(3S-OH,4S-Me) = C[C@H]1CN[C@H](C(=O)O)[C@H]1O; X1 = CCCCCOc1ccc(-c2cc(-c3ccc(C(=O)*)cc3)no2)cc1; Gln(3R-OH) = NC(=O)C[C@@H](O)[C@H](N)C(=O)O; Hyp = O=C(O)[C@@H]1C[C@@H](O)CN1

What was measured:
[1] = biological target: VSV polymerase (L-P1-106) (Vesicular stomatitis Indiana virus, UniProt P03523); format: biochemical; details: 1 mM
[2] = biological target: NiV polymerase (L-P) (Nipah virus, UniProt Q997F0); format: biochemical; details: 1 mM
[3] = tested on: VSBV polymerase (L-P); format: biochemical, variegated squirrel bornavirus (VSBV); details: 1 mM
[4] = biological target: T1, SARS-COV2 polymerase (Nsp7-Nsp8-Nsp12) (Severe acute respiratory syndrome coronavirus 2, UniProt P0DTD1); format: biochemical, severe acute respiratory syndrome coronavirus 2 (SARS-COV2); details: 1 mM
T1 construct: SARS-COV2 polymerase (Nsp7-Nsp8-Nsp12); made in house

[5] = biological target: T2, RSV polymerase (L-P) (Human respiratory syncytial virus A, UniProt P28887); experiment: in vitro de novo RNA synthesis assay, TrC12 template; format: biochemical
[6] = biological target: T2, RSV polymerase (L-P); experiment: in vitro primer-based RNA synthesis assay, TrC12 template and Tr4 primer; format: biochemical; details: 1 mM, TrC12 template, FIG. 3B

T2 sequence (P03421 whole entry): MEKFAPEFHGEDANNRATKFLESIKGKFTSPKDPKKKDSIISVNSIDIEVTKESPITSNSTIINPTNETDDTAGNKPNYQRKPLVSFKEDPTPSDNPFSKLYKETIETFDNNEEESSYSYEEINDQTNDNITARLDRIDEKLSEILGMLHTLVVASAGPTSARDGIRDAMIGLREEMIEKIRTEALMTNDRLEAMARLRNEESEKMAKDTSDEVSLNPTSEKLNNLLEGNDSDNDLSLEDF
T2 sequence (P28887 whole entry): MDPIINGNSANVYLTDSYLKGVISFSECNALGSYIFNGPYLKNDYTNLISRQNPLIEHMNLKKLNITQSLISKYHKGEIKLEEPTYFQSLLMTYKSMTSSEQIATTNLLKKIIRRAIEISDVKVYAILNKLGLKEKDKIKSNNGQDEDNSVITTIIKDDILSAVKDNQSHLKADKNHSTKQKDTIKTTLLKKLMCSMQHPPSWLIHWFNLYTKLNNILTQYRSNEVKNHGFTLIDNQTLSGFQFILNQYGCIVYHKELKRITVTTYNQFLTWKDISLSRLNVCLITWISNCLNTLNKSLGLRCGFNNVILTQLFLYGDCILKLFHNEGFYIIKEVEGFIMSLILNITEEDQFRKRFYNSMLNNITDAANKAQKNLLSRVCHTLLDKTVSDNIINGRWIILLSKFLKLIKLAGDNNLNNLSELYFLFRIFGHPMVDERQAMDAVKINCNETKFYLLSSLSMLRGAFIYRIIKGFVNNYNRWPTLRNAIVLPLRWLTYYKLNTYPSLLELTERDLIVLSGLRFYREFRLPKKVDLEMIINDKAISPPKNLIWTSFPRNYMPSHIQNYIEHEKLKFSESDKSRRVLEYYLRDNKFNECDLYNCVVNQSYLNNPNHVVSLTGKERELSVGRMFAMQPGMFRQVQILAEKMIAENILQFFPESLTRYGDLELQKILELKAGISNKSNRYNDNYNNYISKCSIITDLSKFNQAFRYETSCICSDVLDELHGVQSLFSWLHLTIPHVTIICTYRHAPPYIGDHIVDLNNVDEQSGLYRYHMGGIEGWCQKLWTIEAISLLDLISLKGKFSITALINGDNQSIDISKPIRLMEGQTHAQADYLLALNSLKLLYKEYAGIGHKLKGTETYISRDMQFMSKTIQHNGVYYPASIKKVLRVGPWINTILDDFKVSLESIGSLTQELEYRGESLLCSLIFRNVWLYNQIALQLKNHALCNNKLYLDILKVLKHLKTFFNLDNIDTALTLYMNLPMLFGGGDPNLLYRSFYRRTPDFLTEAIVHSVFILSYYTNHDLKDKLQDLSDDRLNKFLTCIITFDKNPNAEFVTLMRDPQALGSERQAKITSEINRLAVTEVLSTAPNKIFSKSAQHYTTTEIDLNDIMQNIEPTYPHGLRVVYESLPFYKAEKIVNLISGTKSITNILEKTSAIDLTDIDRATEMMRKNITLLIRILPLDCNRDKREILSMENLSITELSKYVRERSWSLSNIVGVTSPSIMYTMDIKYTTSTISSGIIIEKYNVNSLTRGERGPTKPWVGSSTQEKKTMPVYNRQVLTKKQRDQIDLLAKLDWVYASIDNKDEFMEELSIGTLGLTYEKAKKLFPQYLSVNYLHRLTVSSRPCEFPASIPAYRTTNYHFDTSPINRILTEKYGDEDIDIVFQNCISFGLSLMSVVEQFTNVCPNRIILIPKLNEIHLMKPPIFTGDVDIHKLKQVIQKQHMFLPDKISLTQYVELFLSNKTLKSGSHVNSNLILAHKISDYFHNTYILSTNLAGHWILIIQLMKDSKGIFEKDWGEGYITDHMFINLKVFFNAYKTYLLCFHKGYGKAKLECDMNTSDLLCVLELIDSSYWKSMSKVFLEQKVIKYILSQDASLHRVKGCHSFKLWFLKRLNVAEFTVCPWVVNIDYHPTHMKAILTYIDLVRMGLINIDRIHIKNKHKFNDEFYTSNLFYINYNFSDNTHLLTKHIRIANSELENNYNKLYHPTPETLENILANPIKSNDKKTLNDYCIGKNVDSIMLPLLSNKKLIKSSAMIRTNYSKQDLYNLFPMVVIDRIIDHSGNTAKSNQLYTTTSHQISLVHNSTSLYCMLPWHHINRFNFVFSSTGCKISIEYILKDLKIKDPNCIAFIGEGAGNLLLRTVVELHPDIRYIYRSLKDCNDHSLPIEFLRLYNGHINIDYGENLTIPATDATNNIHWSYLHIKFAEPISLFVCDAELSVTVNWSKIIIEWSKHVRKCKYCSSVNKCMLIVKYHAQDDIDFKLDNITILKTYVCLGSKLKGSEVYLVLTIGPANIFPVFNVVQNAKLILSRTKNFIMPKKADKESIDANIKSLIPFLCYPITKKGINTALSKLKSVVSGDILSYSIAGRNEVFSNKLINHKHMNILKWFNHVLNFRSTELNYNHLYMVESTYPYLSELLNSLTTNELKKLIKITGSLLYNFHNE
Sequence of NiV polymerase (L-P) (Q997F0 whole entry, looked up): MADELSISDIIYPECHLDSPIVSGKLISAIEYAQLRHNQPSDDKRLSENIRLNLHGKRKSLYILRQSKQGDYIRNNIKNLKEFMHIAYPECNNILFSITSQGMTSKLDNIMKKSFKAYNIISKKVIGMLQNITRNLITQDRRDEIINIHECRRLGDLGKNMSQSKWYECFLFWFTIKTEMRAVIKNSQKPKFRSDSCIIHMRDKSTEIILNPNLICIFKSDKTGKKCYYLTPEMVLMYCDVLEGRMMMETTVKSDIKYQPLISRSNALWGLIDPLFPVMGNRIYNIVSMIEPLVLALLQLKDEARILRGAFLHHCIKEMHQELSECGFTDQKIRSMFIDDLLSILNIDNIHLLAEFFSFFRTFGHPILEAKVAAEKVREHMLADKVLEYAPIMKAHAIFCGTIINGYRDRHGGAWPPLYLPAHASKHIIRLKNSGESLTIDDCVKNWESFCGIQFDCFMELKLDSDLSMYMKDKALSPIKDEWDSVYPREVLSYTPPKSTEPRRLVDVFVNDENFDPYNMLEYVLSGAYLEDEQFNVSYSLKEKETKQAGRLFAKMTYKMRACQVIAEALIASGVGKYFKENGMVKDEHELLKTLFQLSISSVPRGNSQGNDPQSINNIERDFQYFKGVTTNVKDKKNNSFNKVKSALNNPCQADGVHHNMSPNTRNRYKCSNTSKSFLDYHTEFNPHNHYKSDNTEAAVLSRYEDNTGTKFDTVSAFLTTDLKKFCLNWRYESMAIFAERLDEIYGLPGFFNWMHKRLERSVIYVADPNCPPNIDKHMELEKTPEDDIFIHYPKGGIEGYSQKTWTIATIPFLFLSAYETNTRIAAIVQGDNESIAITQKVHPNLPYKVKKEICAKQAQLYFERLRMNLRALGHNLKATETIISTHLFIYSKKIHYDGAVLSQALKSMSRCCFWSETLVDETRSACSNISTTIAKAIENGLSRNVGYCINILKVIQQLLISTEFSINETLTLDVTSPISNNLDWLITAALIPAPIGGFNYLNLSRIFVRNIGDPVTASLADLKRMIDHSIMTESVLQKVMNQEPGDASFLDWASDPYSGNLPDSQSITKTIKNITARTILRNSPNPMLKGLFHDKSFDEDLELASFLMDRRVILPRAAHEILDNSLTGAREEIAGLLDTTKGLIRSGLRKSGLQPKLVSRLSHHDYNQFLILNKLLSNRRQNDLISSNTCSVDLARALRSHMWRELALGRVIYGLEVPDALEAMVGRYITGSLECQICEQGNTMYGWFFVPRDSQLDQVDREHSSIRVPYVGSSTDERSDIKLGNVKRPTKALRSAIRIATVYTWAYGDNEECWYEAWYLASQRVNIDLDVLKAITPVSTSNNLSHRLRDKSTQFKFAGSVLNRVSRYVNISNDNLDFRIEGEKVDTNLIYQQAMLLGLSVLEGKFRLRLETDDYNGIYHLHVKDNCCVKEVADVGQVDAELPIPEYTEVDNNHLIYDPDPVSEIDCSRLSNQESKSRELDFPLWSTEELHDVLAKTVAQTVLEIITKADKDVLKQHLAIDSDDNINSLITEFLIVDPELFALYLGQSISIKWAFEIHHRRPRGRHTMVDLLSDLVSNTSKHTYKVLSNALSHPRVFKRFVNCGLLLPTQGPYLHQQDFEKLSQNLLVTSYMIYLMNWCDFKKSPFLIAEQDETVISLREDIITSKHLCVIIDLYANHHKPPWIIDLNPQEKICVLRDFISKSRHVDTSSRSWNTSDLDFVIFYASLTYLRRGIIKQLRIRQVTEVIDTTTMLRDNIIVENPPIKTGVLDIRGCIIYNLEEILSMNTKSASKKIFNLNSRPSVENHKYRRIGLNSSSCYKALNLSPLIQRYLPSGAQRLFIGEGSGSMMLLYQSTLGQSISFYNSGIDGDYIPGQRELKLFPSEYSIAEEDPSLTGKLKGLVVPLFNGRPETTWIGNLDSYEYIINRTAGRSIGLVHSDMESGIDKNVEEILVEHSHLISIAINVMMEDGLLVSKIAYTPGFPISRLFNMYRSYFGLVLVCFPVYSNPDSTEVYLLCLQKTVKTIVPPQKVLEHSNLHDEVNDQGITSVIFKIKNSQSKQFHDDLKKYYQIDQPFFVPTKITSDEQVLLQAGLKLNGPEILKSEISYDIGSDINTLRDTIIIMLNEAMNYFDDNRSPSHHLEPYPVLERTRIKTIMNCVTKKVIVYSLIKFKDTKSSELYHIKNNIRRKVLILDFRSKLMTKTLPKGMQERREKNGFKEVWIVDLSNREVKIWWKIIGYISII

| SMILES | inhibition of RNA synthesis activity of VSV polymerase [1] | inhibition of RNA synthesis activity of NiV polymerase [2] | inhibition of RNA synthesis activity of VSBV polymerase [3] | inhibition of RNA synthesis activity of SARS-COV2 polymerase [4] | impact on the RSV polymerase activity in time course ([5]; 0, 25 and 50 μM, FIG. 5A) | activity of RSV polymerase in time course at 50 μM ([5]; 50 μM versus 0 and 25 μM, FIG. 5A) | RSV polymerase activity retained relative to the control group ([5]; 1 mM small molecule in 10% DMSO, 10% DMSO negative control, FIG. 2) [%] | inhibition of RSV polymerase in the in vitro assay (in words) ([5]; 1 mM, FIG. 2) | de novo RNA synthesis activity of RSV polymerase, rank among the tested molecules ([5]; 1 mM, FIG. 3A, compared with 10 other molecules) | primer-based RNA synthesis activity of RSV polymerase, rank among the tested molecules [6] |
| --- | --- | --- | --- | --- | --- | --- | --- | --- | --- | --- |
| Cc1ccc(-n2[nH]c(C)c(N=Nc3cccc(-c4cccc(-c5nnn[nH]5)c4)c3O)c2=O)cc1C [Totrombopag, 2-(3,4-dimethylphenyl)-4-((2-hydroxy-3′-(1H-tetrazol-5-yl)-[1,1′-biphenyl]-3-yl)diazenyl)-5-methyl-1,2-dihydro-3H-pyrazol-3-one] | inhibit | inhibit | inhibit | inhibit | – | – | – | – | – | – |
| CCCCCOc1ccc(-c2cc(-c3ccc(C(=O)N[C@H]4C[C@@H](O)[C@@H](O)NC(=O)[C@@H]5[C@@H](O)[C@@H](C)CN5C(=O)[C@H]([C@H](O)CC(N)=O)NC(=O)[C@H]([C@H](O)[C@@H](O)c5ccc(O)c(OS(=O)(=O)O)c5)NC(=O)[C@@H]5C[C@@H](O)CN5C(=O)[C@H]([C@@H](C)O)NC4=O)cc3)no2)cc1 [Micafungin, 5-(2-(20-(3-amino-1-hydroxy-3-oxopropyl)-2,11,12,15-tetrahydroxy-6-(1-hydroxyethyl)-16-methyl-5,8,14,19,22,25-hexaoxo-9-(4-(5-(4-(pentyloxy)phenyl)isoxazol-3-yl)benzamido)tetracosahydro-1H-dipyrrolo[2,1-c: 2′,1′-1][1,4,7,10,13,16]hexaazacyclohenicosin-23-yl)-1,2-dihydroxyethyl)-2-hydroxyphenyl hydrogen sulfate] (X1-[Orn(4R-OH,5R-OH)]T[Hyp][hTyr(3S-OH,4S-OH,3'-OSO3H)][Gln(3R-OH)][Pro(3S-OH,4S-Me)]; lactam 1-C) | inhibit | inhibit | inhibit | inhibit | time and concentration dependent | lowest at all time points | 29.6 | significant inhibitory activity | lowest | best inhibitors |
| CN1C(N)=NC(C)(c2cc(NC(=O)c3ccc(F)cn3)ccc2F)CS1(=O)=O (stereo not drawn) [Verubecestat, N-(3-(3-amino-2,5-dimethyl-1,1-dioxido-5,6-dihydro-2H-1,2,4-thiadiazin-5-yl)-4-fluorophenyl)-5-fluoropicolinamide] | – | – | – | – | – | – | – | showed inhibition | – | – |
